Data from patent publication US8415272B2, “Quinoline derivatives and their use as fungicides” (Syngenta Crop Protection LLC, priority 2008, dated 2013).

How the values were obtained:
Phytophthora infestans = assay: whole plant or invertebrate; type: in vivo; conditions: in Solanum lycopersicum, foliar, 96 h, read-out: control of fungal infection, Phytophthora infestans
Plasmopara viticola = assay: Leaf disk assay, Plasmopara viticola (downy mildew of grapevine), preventive; type: in vivo; conditions: foliar, 168 h, grapevine leaf disks, assessed seven days after inoculation, read-out: control of fungal infection, Plasmopara viticola
[1] = tested on: Erysiphe graminis f.sp. tritici; assay: Leaf disk assay, Erysiphe graminis f.sp. tritici (wheat powdery mildew), preventive; type: in vivo; conditions: Blumeria graminis, foliar, 96 h, wheat leaf segments, assessed four days after inoculation, read-out: control of fungal infection, Erysiphe graminis f.sp. tritici
Procedure: The compounds were tested in a leaf disk assay, with methods described below. The test compounds were dissolved in DMSO and diluted into water to 200 ppm. In the case of the test on Pythium ultimum, they were dissolved in DMSO and diluted into water to 20 […] graminis f.sp. tritici (wheat powdery mildew): Wheat leaf segments were placed on agar in a 24-well plate and sprayed with a solution of the test compound. After allowing to dry completely, for between 12 and 24 hours, the leaf disks were inoculated with a spore suspension of the fungus. After appropriate incubation the activity of a compound was assessed four days after inoculation as preventive fungicidal activity.

[2] = tested on: Puccinia recondita f.sp. tritici; assay: Leaf disk assay, Puccinia recondita f.sp. tritici (wheat brown rust), preventive; type: in vivo; conditions: foliar, 216 h, wheat leaf segments, assessed nine days after inoculation, read-out: control of fungal infection, Puccinia recondita f.sp. tritici
Septoria nodorum = assay: Leaf disk assay, Septoria nodorum (wheat glume blotch), preventive; type: in vivo; conditions: Parastagonospora nodorum, foliar, 96 h, wheat leaf segments, assessed four days after inoculation, read-out: control of fungal infection, Septoria nodorum
Septoria tritici = assay: Growth inhibition in nutrient broth, Septoria tritici (leaf blotch), photometric; type: cell-based; conditions: Zymoseptoria tritici, PDB broth, 24 C, 72 hrs, read-out: control of fungal infection, Septoria tritici
Pythium ultimum = assay: Growth inhibition in potato dextrose broth, Pythium ultimum (damping off), photometric; type: cell-based; conditions: Globisporangium ultimum, 24° C., 48 hours, read-out: control of fungal infection, Pythium ultimum
Procedure: The compounds were tested in a leaf disk assay, with methods described below. The test compounds were dissolved in DMSO and diluted into water to 200 ppm. In the case of the test on Pythium ultimum, they were dissolved in DMSO and diluted into water to 20 ppm. Pythium ultimum (Damping off): Mycelial fragments of the fungus, prepared from a fresh liquid culture, were mixed into potato dextrose broth. A solution of the test compound in dimethyl sulphoxide was diluted with water to 20 ppm then placed into a 96-well microtiter plate and the nutrient broth containing the fungal spores was added. The test plate was incubated at 24° C. and the inhibition of growth was determined photometrically after 48 hours.

Fusarium culmorum = assay: Growth inhibition in nutrient broth, Fusarium culmorum (root rot), photometric; type: cell-based; conditions: 48 h, read-out: control of fungal infection, Fusarium culmorum
Procedure: The compounds were tested in a leaf disk assay, with methods described below. The test compounds were dissolved in DMSO and diluted into water to 200 ppm. In the case of the test on Pythium ultimum, they were dissolved in DMSO and diluted into water to 20 ppm.
Fusarium culmorum (root rot): Conidia of the fungus from cryogenic storage were directly mixed into nutrient broth (PDB potato dextrose broth). After placing a (DMSO) solution of the test compounds into a microtiter plate (96-well format) the nutrient broth containing the fungal spores was added. The test plates were incubated at 24 C and the inhibition of growth was determined photometrically after 48 hrs.

C#Cc1cnc2ccc(OC(SC)C(=O)NC(C)(C#N)COC)cc2c1 (stereo not shown) [Example 25]
≥ 60%: pest or weed control at 200 ppm (Phytophthora infestans) | pest or weed control at 200 ppm (Plasmopara viticola) | pest or weed control at 200 ppm [1] | pest or weed control at 200 ppm [2] | pest or weed control at 200 ppm (Septoria nodorum) | inhibition of growth at 60 ppm (Septoria tritici) | inhibition of growth at 20 ppm (Pythium ultimum)

COCC#CC(C)(C)NC(=O)C(Oc1ccc2ncc(C#CCO)cc2c1)SC (stereo not shown) [Example 49]
≥ 60%: pest or weed control at 200 ppm (Phytophthora infestans) | pest or weed control at 200 ppm (Plasmopara viticola) | pest or weed control at 200 ppm [2] | inhibition of growth at 20 ppm (Pythium ultimum)

CC#Cc1cnc2ccc(OC(SC)C(=O)NC(C)(C#N)COC)cc2c1 (stereo not shown) [Example 53]
≥ 60%: pest or weed control at 200 ppm (Phytophthora infestans) | pest or weed control at 200 ppm (Septoria nodorum) | inhibition of growth at 60 ppm (Septoria tritici) | inhibition of growth at 20 ppm (Pythium ultimum)

CC#Cc1cnc2ccc(OC(SC)C(=O)NC(C)(C)C#CCOC)cc2c1 (stereo not shown) [Example 55]
≥ 60%: pest or weed control at 200 ppm (Phytophthora infestans) | pest or weed control at 200 ppm (Plasmopara viticola) | pest or weed control at 200 ppm [1] | pest or weed control at 200 ppm [2] | pest or weed control at 200 ppm (Septoria nodorum) | inhibition of growth at 60 ppm (Septoria tritici) | inhibition of growth at 20 ppm (Pythium ultimum)

C#Cc1cnc2c(Cl)cc(OC(SC)C(=O)NC(C)(C#N)COC)cc2c1 (stereo not shown) [Example 64]
≥ 60%: pest or weed control at 200 ppm (Phytophthora infestans) | pest or weed control at 200 ppm (Plasmopara viticola) | pest or weed control at 200 ppm [1] | pest or weed control at 200 ppm [2] | pest or weed control at 200 ppm (Septoria nodorum) | inhibition of growth at 60 ppm (Septoria tritici) | inhibition of growth at 20 ppm (Pythium ultimum)

C#Cc1cnc2ccc(OC(SC)C(=O)NC(C)(C#N)CSC)cc2c1 (stereo not shown) [Example 67]
≥ 60%: pest or weed control at 200 ppm (Phytophthora infestans) | pest or weed control at 200 ppm (Plasmopara viticola) | pest or weed control at 200 ppm [1] | pest or weed control at 200 ppm [2] | inhibition of growth at 60 ppm (Septoria tritici) | inhibition of growth at 20 ppm (Pythium ultimum)

C#Cc1cnc2ccc(OC(SC)C(=O)NC3(C#N)CCC3)cc2c1 (stereo not shown) [Example 83]
≥ 60%: pest or weed control at 200 ppm (Phytophthora infestans) | pest or weed control at 200 ppm (Plasmopara viticola) | pest or weed control at 200 ppm [1] | pest or weed control at 200 ppm [2] | pest or weed control at 200 ppm (Septoria nodorum) | inhibition of growth at 60 ppm (Septoria tritici)

C#Cc1cnc2ccc(OC(SC)C(=O)NC(C)(C)CCOC)cc2c1 (stereo not shown) [Example 85]
≥ 60%: pest or weed control at 200 ppm (Phytophthora infestans) | pest or weed control at 200 ppm (Plasmopara viticola) | pest or weed control at 200 ppm [1] | pest or weed control at 200 ppm [2] | pest or weed control at 200 ppm (Septoria nodorum) | inhibition of growth at 60 ppm (Septoria tritici) | inhibition of growth at 20 ppm (Pythium ultimum)

C#Cc1cnc2ccc(OC(OC)C(=O)NC(C)(C)C#CC)cc2c1 (stereo not shown) [Example 86]
≥ 60%: pest or weed control at 200 ppm (Phytophthora infestans) | pest or weed control at 200 ppm (Plasmopara viticola) | pest or weed control at 200 ppm [1] | pest or weed control at 200 ppm [2] | pest or weed control at 200 ppm (Septoria nodorum) | inhibition of growth at 60 ppm (Septoria tritici)

C#Cc1cnc2ccc(OC(SC)C(=O)NC(C)(COC)COC)cc2c1 (stereo not shown) [Example 88]
≥ 60%: pest or weed control at 200 ppm (Phytophthora infestans) | pest or weed control at 200 ppm (Plasmopara viticola) | pest or weed control at 200 ppm [1] | pest or weed control at 200 ppm [2] | pest or weed control at 200 ppm (Septoria nodorum) | inhibition of growth at 60 ppm (Septoria tritici) | inhibition of growth at 20 ppm (Pythium ultimum)

C#Cc1cnc2ccc(OC(SC)C(=O)NC)cc2c1 (stereo not shown) [Example 96]
≥ 60%: pest or weed control at 200 ppm (Phytophthora infestans) | pest or weed control at 200 ppm (Plasmopara viticola) | pest or weed control at 200 ppm [1] | pest or weed control at 200 ppm (Septoria nodorum) | inhibition of growth at 60 ppm (Septoria tritici) | inhibition of growth at 20 ppm (Pythium ultimum)

C#Cc1cnc2ccc(OC(SC)C(=O)NC(C)(C)C#CCCOC)cc2c1 (stereo not shown) [Example 103]
≥ 60%: pest or weed control at 200 ppm (Phytophthora infestans) | pest or weed control at 200 ppm (Plasmopara viticola) | pest or weed control at 200 ppm [1] | pest or weed control at 200 ppm [2] | pest or weed control at 200 ppm (Septoria nodorum)

C#Cc1cnc2cc(F)c(OC(SC)C(=O)NC(C)(C)C(=O)OC)cc2c1 (stereo not shown) [Example 105]
≥ 60%: pest or weed control at 200 ppm (Phytophthora infestans) | pest or weed control at 200 ppm (Plasmopara viticola) | pest or weed control at 200 ppm [1] | pest or weed control at 200 ppm [2] | pest or weed control at 200 ppm (Septoria nodorum) | inhibition of growth at 60 ppm (Septoria tritici)

C#Cc1cnc2c(C)cc(OC(CC)C(=O)NC(C)(C)C#CCOC)cc2c1 (stereo not shown) [Example 112]
≥ 60%: pest or weed control at 200 ppm (Phytophthora infestans) | pest or weed control at 200 ppm (Plasmopara viticola) | pest or weed control at 200 ppm [1] | pest or weed control at 200 ppm [2] | pest or weed control at 200 ppm (Septoria nodorum) | inhibition of growth at 60 ppm (Septoria tritici)

C#Cc1cnc2c(Cl)cc(OC(SC)C(=O)NC(C)(C#CC)CC)cc2c1 (stereo not shown) [Example 121]
≥ 60%: pest or weed control at 200 ppm (Phytophthora infestans) | pest or weed control at 200 ppm (Plasmopara viticola) | pest or weed control at 200 ppm [1] | pest or weed control at 200 ppm (Septoria nodorum) | inhibition of growth at 60 ppm (Septoria tritici) | inhibition of growth at 20 ppm (Pythium ultimum)

C#Cc1cnc2c(Cl)cc(OC(SC)C(=O)NC(C)(C)C#CCCCCl)cc2c1 (stereo not shown) [Example 123]
≥ 60%: pest or weed control at 200 ppm (Phytophthora infestans) | pest or weed control at 200 ppm (Plasmopara viticola) | pest or weed control at 200 ppm [1] | pest or weed control at 200 ppm [2] | pest or weed control at 200 ppm (Septoria nodorum) | inhibition of growth at 60 ppm (Septoria tritici)

C#Cc1cnc2ccc(OC(OC)C(=O)NC(C)(C#N)COC)cc2c1 (stereo not shown) [Example 128]
≥ 60%: pest or weed control at 200 ppm (Phytophthora infestans) | pest or weed control at 200 ppm (Plasmopara viticola) | pest or weed control at 200 ppm [1] | pest or weed control at 200 ppm (Septoria nodorum) | inhibition of growth at 60 ppm (Septoria tritici) | inhibition of growth at 20 ppm (Pythium ultimum)

C#Cc1cnc2c(C)cc(OC(SC)C(=O)NC(C)(C=O)COC)cc2c1 (stereo not shown) [Example 134]
≥ 60%: pest or weed control at 200 ppm (Phytophthora infestans) | pest or weed control at 200 ppm (Plasmopara viticola) | pest or weed control at 200 ppm [1] | pest or weed control at 200 ppm [2] | pest or weed control at 200 ppm (Septoria nodorum) | inhibition of growth at 60 ppm (Septoria tritici)

C#Cc1cnc2ccc(OC(SC)C(=O)NC3(CO)CCC3)cc2c1 (stereo not shown) [Example 148]
≥ 60%: pest or weed control at 200 ppm (Phytophthora infestans) | pest or weed control at 200 ppm (Plasmopara viticola) | pest or weed control at 200 ppm [1] | pest or weed control at 200 ppm [2] | inhibition of growth at 60 ppm (Septoria tritici)

C#CCOCC1(NC(=O)C(Oc2ccc3ncc(C#C)cc3c2)SC)CCC1 (stereo not shown) [Example 152]
≥ 60%: pest or weed control at 200 ppm (Phytophthora infestans) | pest or weed control at 200 ppm (Plasmopara viticola) | pest or weed control at 200 ppm [1] | pest or weed control at 200 ppm (Septoria nodorum) | inhibition of growth at 60 ppm (Septoria tritici)

C#Cc1cnc2ccc(OC(SC)C(=O)NC3(C(OC)OC)CCC3)cc2c1 (stereo not shown) [Example 153]
≥ 60%: pest or weed control at 200 ppm (Phytophthora infestans) | pest or weed control at 200 ppm (Plasmopara viticola) | pest or weed control at 200 ppm [1] | pest or weed control at 200 ppm (Septoria nodorum) | inhibition of growth at 60 ppm (Septoria tritici) | inhibition of growth at 20 ppm (Pythium ultimum)

C#Cc1cnc2ccc(OC(OC)C(=O)NC(C)(C#C)COC)cc2c1 (stereo not shown) [Example 155]
≥ 60%: pest or weed control at 200 ppm [1] | pest or weed control at 200 ppm [2] | pest or weed control at 200 ppm (Septoria nodorum)

C#CCOCC(C)(COCC#C)NC(=O)C(Oc1ccc2ncc(C#C)cc2c1)SC (stereo not shown) [Example 165]
≥ 60%: pest or weed control at 200 ppm (Phytophthora infestans) | pest or weed control at 200 ppm (Plasmopara viticola) | pest or weed control at 200 ppm [1] | pest or weed control at 200 ppm [2] | pest or weed control at 200 ppm (Septoria nodorum) | inhibition of growth at 60 ppm (Septoria tritici) | inhibition of growth at 20 ppm (Pythium ultimum)

C#Cc1cnc2ccc(OC(SC)C(=O)NC(C)(C#C)CO)cc2c1 (stereo not shown) [Example 173]
≥ 60%: pest or weed control at 200 ppm (Phytophthora infestans) | pest or weed control at 200 ppm (Plasmopara viticola) | pest or weed control at 200 ppm [1] | pest or weed control at 200 ppm (Septoria nodorum) | inhibition of growth at 20 ppm (Pythium ultimum)

C#Cc1cnc2cc(F)c(OC(SC)C(=O)NC(C)(C)C#CCC)cc2c1 (stereo not shown) [Example 190]
≥ 60%: pest or weed control at 200 ppm (Phytophthora infestans) | pest or weed control at 200 ppm (Plasmopara viticola) | inhibition of growth at 60 ppm (Fusarium culmorum) | inhibition of growth at 20 ppm (Pythium ultimum)

C#Cc1cnc2cc(F)c(OC(CC)C(=O)NC(C)(C)C=O)cc2c1 (stereo not shown) [Example 193]
≥ 60%: pest or weed control at 200 ppm (Phytophthora infestans) | pest or weed control at 200 ppm (Plasmopara viticola) | inhibition of growth at 60 ppm (Fusarium culmorum) | inhibition of growth at 20 ppm (Pythium ultimum)

C#Cc1cnc2ccc(OC(SC)C(=O)NCCO)cc2c1 (stereo not shown) [Example 194]
≥ 60%: pest or weed control at 200 ppm (Phytophthora infestans) | pest or weed control at 200 ppm (Plasmopara viticola) | pest or weed control at 200 ppm (Septoria nodorum) | inhibition of growth at 20 ppm (Pythium ultimum)

C#Cc1cnc2c(F)c(F)c(OC(SC)C(=O)NC(C)(C)C#CCOC)cc2c1 (stereo not shown) [Example 215]
≥ 60%: pest or weed control at 200 ppm (Phytophthora infestans) | pest or weed control at 200 ppm (Plasmopara viticola) | pest or weed control at 200 ppm [1] | pest or weed control at 200 ppm [2] | inhibition of growth at 60 ppm (Septoria tritici) | inhibition of growth at 20 ppm (Pythium ultimum)
